Reference: paper PMC11131246, “Molecular determinants for brain targeting by peptides: a meta-analysis approach with experimental validation” (Fluids and Barriers of the CNS, 2024)
Where two headings read alike, the source gives them in different places. Residues, ends and D or L forms follow the SMILES beside them. No end group written: not given here. *: point of attachment. NODAGA = O=C(O)CN1CCN(CC(=O)O)CCN(C(CCC(=O)*)C(=O)O)CC1

What was measured:
[1] = Biodistribution of 67Ga-radiolabeled peptides; set-up: species or system mouse; conditions: female, in vivo, iv, 100 uCi, total radioactivity, mean ± SD, n = 3; for tissue uptake at 1 h / tissue uptake at 2 min: CD1, mouse, i.v. tail vein; for tissue uptake at 2 min: 2 min post injection
Experimental: All animal experiments were performed in compliance with national and EU legislation for good practices on laboratory animal science. The animals were housed in a temperature and humidity-controlled environment with a 12 h light/12 h dark schedule. Biodistribution of radiolabeled peptides was performed on 7 weeks old CD1 female mice.
Animals were intravenously injected into the tail vein with 100 µL of a 25 µM saline solution of the ^67Ga-peptide with a radioactivity around 100 µCi. The mice were euthanized by cervical dislocation at 2 min and 1 h after injection. The dose administered and the radioactivity in the euthanized animals was measured using a dose calibrator (Carpintec CRC-15W, Ramsey, USA). The difference between the radioactivity in the injected and the euthanized animals was assumed to be due to excretion. Brain and tissues of interest without previous perfusion were dissected, washed, and weighed, and their radioactivity was measured using a γ counter (Hidex AMG, Hidex, Turku, Finland). The uptake in the brain and tissues of interest was calculated and expressed as a percentage of injected radioactivity dose per gram of tissue (% ID/g).

[2] = Analytical RP-HPLC retention time (used as indication of hydrophobicity); assay type: physicochemical; conditions: separate analytical RP-HPLC coupled to a γ-detector; 67Ga-NODA-GA labelled peptides
[3] = Cytotoxicity, CellTiter-Blue cell viability assay; assay type: cell-based; conditions: human
Experimental: (§1) Peptide cytotoxicity was determined using the CellTiter-Blue® cell viability assay, following a described protocol. Briefly, all cell lines were carefully harvested with trypsin–EDTA and seeded 10.000–20.000 cells/100 μL into 96-well clear flat-bottomed polystyrene plates (Corning, USA) for 24 h. After medium removal, cells were washed twice with 1X PBS, and 100 µL of previously diluted peptides (range from 0.05–100.0 µM) in the respective medium were added to cells. Then, after 24 h, cells were washed twice with 1X PBS and 20 µL of CellTiter-Blue® Reagent (diluted in 100 µL of medium) was added to each well and incubated for 3 h in culturing conditions. The fluorescence intensity was measured using Varioskan™ LUX multimode microplate reader.
(§2) IC50 values were determined using GraphPad Prism 7.0 software using a log(inhibitor) versus normalized response. Experiments were performed in triplicates on different days using three independently grown cell cultures.

[4] = Cytotoxicity, CellTiter-Blue cell viability assay; assay type: cell-based; conditions: human; remark: listed apart in the source
Experimental: as §1, §2

[5] = Cytotoxicity, CellTiter-Blue cell viability assay; assay type: cell-based; conditions: human; remark: listed apart in the source
Experimental: as §1, §2

[6] = Cytotoxicity, CellTiter-Blue cell viability assay; assay type: cell-based; conditions: human; remark: listed apart in the source
Experimental: as §1, §2

[7] = Cytotoxicity, CellTiter-Blue cell viability assay; assay type: cell-based; conditions: human; remark: listed apart in the source
Experimental: as §1, §2

HBEC-5i cells = experiment: Translocation across in vitro BBB model (HBEC-5i monolayer, transwell); assay type: in vitro ADME, human; conditions: HBEC-5i monolayer on AF-coated PET transwell inserts (1.0 µm pores), 8 days, CF-peptide 5.0 µM in DMEM:F12 without phenol red added to apical side, 24 h, fluorescence, plate reader, mean ± SD, triplicates of three independent experiments
Experimental: Throughout 8 days, medium was changed every other day. On the day of the experiment, cells were washed twice with 1X PBS (137.0 mM NaCl, 2.7 mM KCl, 10.0 mM Na2HPO4, and 1.8 mM KH2PO4), and once with DMEM:F12 without phenol red. Then, CF-peptides (5.0 μM, in DMEM:F12 without phenol red) were added to the apical side of the in vitro BBB model and incubated for 24 h. Finally, samples from the apical and basolateral side were collected and fluorescence intensity analyzed using a Varioskan^TM LUX multimode microplate reader (Thermo Fisher, Spain). […] Experiments were performed in triplicates on different days using three independently grown cell cultures. Seeking experimental support for our hypothesis, we have synthesized and tested in vitro the activity of ten peptides (Table 1), selected among the 14 BBBpS entries by their lowest S score in an OLS ranking.

[8] = read-out: Cytotoxicity IC50 HBEC-5i
[9] = CellTiter-Blue, peptides 0.05–100.0 µM, 24 h, triplicates, three independent cultures, read-out: Cytotoxicity IC50 HeLa
[10] = CellTiter-Blue, peptides 0.05–100.0 µM, 24 h, triplicates, three independent cultures, read-out: Cytotoxicity IC50 Hs68
[11] = CellTiter-Blue, peptides 0.05–100.0 µM, 24 h, triplicates, three independent cultures
[12] = CellTiter-Blue, peptides 0.05–100.0 µM, 24 h, triplicates, three independent cultures, read-out: Cytotoxicity IC50 HEK-293

CC[C@H](C)[C@H](NC(=O)CNC(=O)[C@H](CCCNC(=N)N)NC(=O)[C@H](Cc1ccc(O)cc1)NC(=O)[C@H](CS)NC(=O)[C@@H](NC(=O)[C@H](CCCNC(=N)N)NC(=O)[C@H](Cc1ccccc1)NC(=O)[C@H](CS)NC(=O)[C@H](Cc1c[nH]c2ccccc12)NC(=O)[C@H](CCCCN)NC(=O)CCC(C(=O)O)N1CCN(CC(=O)O)CCN(CC(=O)O)CC1)C(C)C)C(=O)N[C@@H](CS)C(=O)N[C@@H](Cc1ccc(O)cc1)C(=O)N[C@@H](CCCNC(=N)N)C(=O)N[C@@H](CCCNC(=N)N)C(=O)N[C@@H](CS)C(=O)N[C@@H](CCCNC(=N)N)C(N)=O (stereo partly shown) [67Ga-non-BBBpS_2, metal not drawn] ({NODAGA}-KWCFRVCYRGICYRRCR-NH2)
tissue uptake at 1 h ([1]; blood, 1 h post injection, CD1 female mice, 100 µL of 25 µM 67Ga-peptide, γ counter, read-out: Tissue distribution, Blood): 0.9 ± 0.6 %ID/g | tissue uptake at 2 min ([1]; bone, CD1 mice, read-out: Tissue distribution, Bone): 3.7 ± 0.5 %ID/g | tissue uptake at 1 h ([1]; bone, 1 h post injection, CD1 mice, read-out: Tissue distribution, Bone): 1.6 ± 0.1 %ID/g | tissue uptake at 1 h ([1]; brain without perfusion, 1 h post injection, CD1 female mice, γ counter, read-out: Tissue distribution, Brain (brain uptake)): 0.13 ± 0.03 %ID/g | tissue uptake at 2 min ([1]; heart, CD1 mice, read-out: Tissue distribution, Heart): 6 ± 0.8 %ID/g | tissue uptake at 1 h ([1]; heart, 1 h post injection, CD1 mice, read-out: Tissue distribution, Heart): 1.7 ± 0.1 %ID/g | tissue uptake at 2 min ([1]; intestine, CD1 mice, read-out: Tissue distribution, Intestine): 2.7 ± 0.7 %ID/g | tissue uptake at 1 h ([1]; intestine, 1 h post injection, CD1 mice, read-out: Tissue distribution, Intestine): 1.6 ± 0.5 %ID/g | tissue uptake at 2 min ([1]; kidney, CD1 mice, read-out: Tissue distribution, Kidney): 19.9 ± 0.4 %ID/g | tissue uptake at 1 h ([1]; kidney, 1 h post injection, CD1 mice, read-out: Tissue distribution, Kidney): 5.4 ± 0.8 %ID/g | tissue uptake at 2 min ([1]; liver, CD1 mice, read-out: Tissue distribution, Liver): 19.8 ± 0.7 %ID/g | tissue uptake at 1 h ([1]; liver, 1 h post injection, CD1 mice, read-out: Tissue distribution, Liver): 22.8 ± 10.1 %ID/g | tissue uptake at 2 min ([1]; lung, CD1 mice, read-out: Tissue distribution, Lung): 7.6 ± 1.5 %ID/g | tissue uptake at 1 h ([1]; lung, 1 h post injection, CD1 mice, read-out: Tissue distribution, Lung): 2.4 ± 0.7 %ID/g | tissue uptake at 2 min ([1]; muscle, CD1 mice, read-out: Tissue distribution, Muscle): 1.8 ± 0.5 %ID/g | tissue uptake at 1 h ([1]; muscle, 1 h post injection, CD1 mice, read-out: Tissue distribution, Muscle): 1.2 ± 0.4 %ID/g | tissue uptake at 2 min ([1]; spleen, CD1 mice, read-out: Tissue distribution, Spleen): 5.6 ± 0.4 %ID/g | tissue uptake at 1 h ([1]; spleen, 1 h post injection, CD1 mice, read-out: Tissue distribution, Spleen): 3.7 ± 1.8 %ID/g | tissue uptake at 2 min ([1]; stomach, CD1 mice, read-out: Tissue distribution, Stomach): 2.1 ± 0.6 %ID/g | tissue uptake at 1 h ([1]; stomach, 1 h post injection, CD1 mice, read-out: Tissue distribution, Stomach): 1.7 ± 0.6 %ID/g | excretion (% injected dose) ([1]; mouse, 1 h post injection, difference between radioactivity injected and in the euthanized animal, CD1 mice): 13.5 ± 5.1 %ID | HPLC tR [2]: 12.99 min

CSCC[C@H](NC(=O)[C@H](CC(C)C)NC(=O)CNC(=O)[C@H](Cc1ccccc1)NC(=O)[C@H](Cc1ccccc1)NC(=O)[C@H](CCC(N)=O)NC(=O)[C@H](CCC(N)=O)NC(=O)[C@@H]1CCCN1C(=O)[C@H](CCCCN)NC(=O)[C@@H]1CCCN1C(=O)[C@@H](N)CCCN=C(N)N)C(N)=O [BBBpS_10]
IC50 at 24 h [3]: > 100 µM | IC50 at 24 h [4]: > 100 µM | IC50 at 24 h [5]: > 100 µM | IC50 at 24 h [6]: > 100 µM | IC50 at 24 h [7]: > 100 µM

AGILKRW [PepH3, well-tested BBBpS standard, reference compound]
Translocation (%) HBEC-5i (HBEC-5i cells): 54.0 ± 2.2%

APWHLSSQYSRT-NH2 [BBBpS_4]
IC50 at 24 h [3]: > 100 µM | IC50 at 24 h [4]: > 100 µM | IC50 at 24 h [5]: > 100 µM | IC50 at 24 h [6]: > 100 µM | IC50 at 24 h [7]: > 100 µM

EEGRLYMRYYSPTTRRYG-NH2 [BBBpS_3]
Translocation (%) HBEC-5i (HBEC-5i cells): 35.7 ± 3.6% | IC50 at 24 h [3, 8]: > 100 µM | IC50 at 24 h [4, 9]: > 100 µM | IC50 at 24 h [5, 10]: > 100 µM | IC50 at 24 h [6, 11]: > 100 µM | IC50 at 24 h [7, 12]: > 100 µM

HIQLSPFSQSWR-NH2 [BBBpS_5]
IC50 at 24 h [3]: > 100 µM | IC50 at 24 h [4]: > 100 µM | IC50 at 24 h [5]: > 100 µM | IC50 at 24 h [6]: > 100 µM | IC50 at 24 h [7]: > 100 µM

KKKKQPPKPKKPKTQEKKKKQPPKPKR-NH2 [non-BBBpS_1]
Translocation (%) HBEC-5i (HBEC-5i cells): 20.0 ± 3.5% | IC50 at 24 h [3, 8]: > 100 µM | IC50 at 24 h [4, 9]: > 100 µM | IC50 at 24 h [5, 10]: > 100 µM | IC50 at 24 h [6, 11]: > 100 µM | IC50 at 24 h [7, 12]: > 100 µM

KYKGAIIGNIK-NH2 [BBBpS_1]
IC50 at 24 h [3]: > 100 µM | IC50 at 24 h [4]: > 100 µM | IC50 at 24 h [5]: > 100 µM | IC50 at 24 h [6]: > 100 µM | IC50 at 24 h [7]: > 100 µM

KYRSGAITIGY-NH2 [BBBpS_2]
IC50 at 24 h [3]: > 100 µM | IC50 at 24 h [4]: > 100 µM | IC50 at 24 h [5]: > 100 µM | IC50 at 24 h [6]: > 100 µM | IC50 at 24 h [7]: > 100 µM

LKTLTETLKELTKTLTEL-NH2 [BBBpS_7]
IC50 at 24 h [3]: > 100 µM | IC50 at 24 h [4]: > 100 µM | IC50 at 24 h [5]: > 100 µM | IC50 at 24 h [6]: > 100 µM | IC50 at 24 h [7]: > 100 µM

NRPDSAQFWLHH-NH2 [BBBpS_9]
IC50 at 24 h [3]: > 100 µM | IC50 at 24 h [4]: > 100 µM | IC50 at 24 h [5]: > 100 µM | IC50 at 24 h [6]: > 100 µM | IC50 at 24 h [7]: > 100 µM

YDEEGGGE-NH2 [non-BBBpS_3]
IC50 at 24 h [3]: > 100 µM | IC50 at 24 h [4]: > 100 µM | IC50 at 24 h [5]: > 100 µM | IC50 at 24 h [6]: > 100 µM | IC50 at 24 h [7]: > 100 µM

YKEATSTFTNITYRGT-NH2 [BBBpS_8]
IC50 at 24 h [3]: > 100 µM | IC50 at 24 h [4]: > 100 µM | IC50 at 24 h [5]: > 100 µM | IC50 at 24 h [6]: > 100 µM | IC50 at 24 h [7]: > 100 µM

YTQDFNKFHTFPQTAIGVGAP-NH2 [BBBpS_6]
IC50 at 24 h [3]: > 100 µM | IC50 at 24 h [4]: > 100 µM | IC50 at 24 h [5]: > 100 µM | IC50 at 24 h [6]: > 100 µM | IC50 at 24 h [7]: > 100 µM
